Results on 18 compounds are retold here after US20230295157A1, “3-(1H-IMIDAZOL-2-YL)-2,3,8,8A-TETRAHYDROINDOLIZIN-5(1H)-ONE DERIVATIVES USEFUL AS FACTOR XIA INHIBITORS” (JANSSEN PHARMACEUTICA NV, priority 2020, published 2023).

Broadly, the IC50 is the concentration needed to halve the response being measured.

Like-named read-outs stand apart in the source and are kept apart here.

The target in one assay is human plasma kallikrein (Homo sapiens (Human), UniProt P03952). Briefly: Kallikrein inhibition assay (FLINT) utilizing a quenched AMC peptide substrate. The format is biochemical. To be noted: 30 min preincubation, read-out: Kallikrein Kin Inh IC50. In a few lines: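 Fluorogenic Z-Gly-Pro-Arg-AMC cleavage (50 μM substrate, 2 nM kallikrein, Tris pH 7.5, CaCl2, BSA, CHAPS, 2% DMSO) read kinetically at 340/440 nm for 30 min after 30-min compound pre-incubation. Compounds in 11-point 3-fold series from 1 μM; percent inhibition fitted to four-parameter equation for IC50.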

The target of a further assay is Factor XIa (Homo sapiens (Human), UniProt P03951). Briefly: Factor XIa inhibition assay (FLINT) utilizing a fluorophore-quencher pair peptide substrate. To be noted: 30 min preincubation, kinetic reads over 30 min, read-out: FXIa Kin Inh IC50. The format is biochemical. In a few lines: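 FXIa ([…]) preincubated 30 min with compound (11-point 3-fold dilution, top 100 nM, 2% DMSO), then 15 μM quenched FXI Arg146-based peptide added; Tris pH 7.5, CaCl2, BSA, CHAPS. Fluorescence 485/520 nm read kinetically every 5 min over 30 min at RT; IC50 by 4-parameter fit.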

Setting [1] is: 5Fam-[…]-K5Tamra substrate 15 μM.
The mark [2] stands for this setting: kinetic reads over 30 min, Z-Gly-Pro-Arg-AMC substrate 50 μM.
Setting [3] is: 5Fam-KLTRAETV-K5Tamra substrate 15 μM.

Sequence of Factor XIa (P03951 388-625): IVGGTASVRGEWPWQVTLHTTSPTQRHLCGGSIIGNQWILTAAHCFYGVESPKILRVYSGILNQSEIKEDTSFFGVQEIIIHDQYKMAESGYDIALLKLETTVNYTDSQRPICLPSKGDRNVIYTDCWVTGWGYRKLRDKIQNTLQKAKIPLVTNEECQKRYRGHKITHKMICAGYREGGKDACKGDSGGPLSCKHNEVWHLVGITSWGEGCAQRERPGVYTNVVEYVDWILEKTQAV
Sequence of Factor XIa (P03951 19-387 partner): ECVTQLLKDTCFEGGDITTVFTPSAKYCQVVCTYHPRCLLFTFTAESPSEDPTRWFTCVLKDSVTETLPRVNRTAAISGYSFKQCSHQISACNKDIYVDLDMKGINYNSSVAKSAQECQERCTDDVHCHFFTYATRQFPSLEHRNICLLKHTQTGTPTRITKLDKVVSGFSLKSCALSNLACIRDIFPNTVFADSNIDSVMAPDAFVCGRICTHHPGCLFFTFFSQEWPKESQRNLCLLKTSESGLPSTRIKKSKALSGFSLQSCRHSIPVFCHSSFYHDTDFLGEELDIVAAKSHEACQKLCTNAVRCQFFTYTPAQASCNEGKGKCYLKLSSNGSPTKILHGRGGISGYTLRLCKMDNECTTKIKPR
Sequence of human plasma kallikrein (P03952 391-638): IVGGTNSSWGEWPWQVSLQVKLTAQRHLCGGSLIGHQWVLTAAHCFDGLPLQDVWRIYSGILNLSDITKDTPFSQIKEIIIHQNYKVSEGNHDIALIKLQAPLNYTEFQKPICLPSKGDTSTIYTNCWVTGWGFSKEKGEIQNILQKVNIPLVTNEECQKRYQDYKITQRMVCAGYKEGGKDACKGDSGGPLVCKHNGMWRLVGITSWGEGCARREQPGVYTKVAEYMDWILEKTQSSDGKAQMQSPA
Sequence of human plasma kallikrein (P03952 20-390 partner): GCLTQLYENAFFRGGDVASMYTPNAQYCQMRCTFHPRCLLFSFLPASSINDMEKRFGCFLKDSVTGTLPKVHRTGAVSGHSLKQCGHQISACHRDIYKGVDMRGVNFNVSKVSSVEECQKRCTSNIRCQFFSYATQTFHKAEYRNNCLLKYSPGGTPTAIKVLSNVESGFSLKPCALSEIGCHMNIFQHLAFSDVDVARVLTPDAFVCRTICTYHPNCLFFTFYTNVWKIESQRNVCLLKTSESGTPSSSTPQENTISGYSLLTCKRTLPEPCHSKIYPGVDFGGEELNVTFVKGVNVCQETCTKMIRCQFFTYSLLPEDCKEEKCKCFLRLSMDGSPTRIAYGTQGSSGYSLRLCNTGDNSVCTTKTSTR

Consider `C[C@H]1C[C@@H](c2ncc(-c3ccc(N)nc3F)[nH]2)N2C(=O)C=C(c3c(-n4cnnn4)ccc(Cl)c3F)C[C@H]12` (relative stereo) [Example 344, (1*S,3S,8a*R)-3-(5-(6-Amino-2-fluoropyridin-3-yl)-1H-imidazol-2-yl)-7-(3-chloro-2-fluoro-6-(1H-tetrazol-1-yl)phenyl)-1-methyl-2,3,8,8a-tetrahydroindolizin-5(1H)-one], for which the half-inhibitory concentration (IC50) at human plasma kallikrein (μM, kinetic reads) was 1.3 µM; on Factor XIa (setting [1]), 202 nM.

Regarding `O=C1C=C(c2c(-n3cnnn3)ccc(Cl)c2F)CC2CC[C@@H](c3nc(-c4ccnc(OCCO)c4)c[nH]3)N12` (single isomer, unassigned) [Example 9], the half-maximal inhibitory concentration (IC50) turned out to be 0.0085 µM at human plasma kallikrein (setting [2]) and 2.1 nM at Factor XIa (setting [3]).

For the compound `O=C1C=C(c2c(-n3cnnn3)ccc(Cl)c2F)C[C@H]2CC[C@@H](c3ncc(-c4c[nH]c5cnccc45)[nH]3)N12` (single isomer, unassigned) [Example 19], the IC50 is 0.0074 µM on human plasma kallikrein (setting [2]) and 2.4 nM on Factor XIa (setting [3]).

Take `CC(O)COc1nccc(-c2cnc([C@@H]3CC[C@@H]4CC(c5c(-n6cnnn6)ccc(Cl)c5F)=CC(=O)N43)[nH]2)c1F` (single isomer, unassigned) [Example 28]: the values for the IC50 at human plasma kallikrein (setting [2]) and on Factor XIa (setting [3]) were 0.0094 µM and 1.3 nM, respectively.

As to `CC(O)COc1nccc(-c2cnc([C@@H]3CC[C@H]4CC(c5c(-n6cnnn6)ccc(Cl)c5F)=CC(=O)N43)[nH]2)c1F` (single isomer, unassigned) [Example 29], the IC50 at human plasma kallikrein (setting [2]) was 0.307 µM; at Factor XIa (setting [3]), 57.9 nM.

Consider `O=C1C=C(c2c(-n3cnnn3)ccc(Cl)c2F)C[C@H]2CC[C@@H](c3nc(F)c(-c4ccnc(-c5ccn[nH]5)c4)[nH]3)N12` (single isomer, unassigned) [Example 31], for which the values for the IC50 on human plasma kallikrein (setting [2]) and on Factor XIa (setting [3]) were 0.0018 µM and 0.7 nM, respectively.

For the compound `Cc1nc([C@@H]2CC[C@@H]3CC(c4c(-n5cnnn5)ccc(Cl)c4F)=CC(=O)N32)[nH]c1-c1ccnc(CO)c1F` (single isomer, unassigned) [Example 35], the 50% inhibitory concentration (IC50) worked out at 0.245 µM at human plasma kallikrein (setting [2]) and 60.1 nM on Factor XIa (setting [1]).

Regarding `[2H]C([2H])(O)c1nccc(-c2cnc([C@@H]3CC[C@]4([2H])CC(c5c(-n6cnnn6)ccc(Cl)c5F)=CC(=O)N34)[nH]2)c1F` (single isomer, unassigned) [Example 36], the concentration for half-maximal inhibition (IC50) was 0.0337 µM at human plasma kallikrein (setting [2]) and 5.1 nM on Factor XIa (setting [3]).

As for `Nc1ccnn1-c1cc(-c2cnc([C@H]3CC[C@@H]4CC(c5c(-n6cnnn6)ccc(Cl)c5F)=CC(=O)N43)[nH]2)ccn1` (single isomer, unassigned) [Example 49, (3R*,8aR)-3-(5-(2-(5-amino-1H-pyrazol-1-yl)pyridin-4-yl)-1H-imidazol-2-yl)-7-(3-chloro-2-fluoro-6-(1H-tetrazol-1-yl)phenyl)-2,3,8,8a-tetrahydroindolizin-5(1H)-one], the values for the concentration for half-maximal inhibition (IC50) on human plasma kallikrein (setting [2]) and at Factor XIa (setting [1]) were 0.0114 µM and 31.3 nM, respectively.

In the case of `O=C(O)c1nccc(-c2cnc([C@@H]3CC[C@@H]4CC(c5cc(Cl)ccc5-n5cc(C(F)(F)F)nn5)=CC(=O)N43)[nH]2)c1F` (single isomer, unassigned) [Example 54, 4-(2-((3S*,8aR)-7-(5-chloro-2-(4-(trifluoromethyl)-1H-1,2,3-triazol-1-yl)phenyl)-5-oxo-1,2,3,5,8,8a-hexahydroindolizin-3-yl)-1H-imidazol-5-yl)-3-fluoropicolinic acid], the values for the half-inhibitory concentration (IC50) at human plasma kallikrein (setting [2]) and on Factor XIa (setting [1]) were 0.0679 µM and 0.8 nM, respectively.

As for `Nc1ccn(-c2nccc(-c3cnc([C@H]4CC[C@@H]5CC(c6c(-n7cnnn7)ccc(Cl)c6F)=CC(=O)N54)[nH]3)c2F)n1` (single isomer, unassigned) [Example 63], the 50% inhibitory concentration (IC50) was 0.0062 µM on human plasma kallikrein (setting [2]) and 6.9 nM at Factor XIa (setting [1]).

For the compound `O=C1C=C(c2c(-n3cnnn3)ccc(Cl)c2F)CC2CCC(c3nc(-c4cccc(-c5ccn[nH]5)n4)c(F)[nH]3)N12` (single isomer, unassigned) [Example 66, (3S*)-3-(4-(6-(1H-pyrazol-5-yl)pyridin-2-yl)-5-fluoro-1H-imidazol-2-yl)-7-(3-chloro-2-fluoro-6-(1H-tetrazol-1-yl)phenyl)-2,3,8,8a-tetrahydroindolizin-5(1H)-one], the values for the concentration for half-maximal inhibition (IC50) on human plasma kallikrein (setting [2]) and on Factor XIa (setting [1]) were 0.0259 µM and 55 nM, respectively.

For `Nc1nccc(-c2[nH]c([C@@H]3CC[C@@H]4CC(c5cc(Cl)ccc5-n5cnnn5)=CC(=O)N43)nc2F)c1F` (single isomer, unassigned) [Example 70, (3S*,8aR)-3-(5-(2-amino-3-fluoropyridin-4-yl)-4-fluoro-1H-imidazol-2-yl)-7-(5-chloro-2-(1H-tetrazol-1-yl)phenyl)-2,3,8,8a-tetrahydroindolizin-5(1H)-one], the results for the IC50 on human plasma kallikrein (setting [2]) and at Factor XIa (setting [1]) were 0.0026 µM and 0.3 nM, respectively.

Take `O=C1C=C(c2c(-n3cnnn3)ccc(Cl)c2F)C[C@H]2CC[C@H](c3ncc(-c4ccnc(-n5ccnn5)c4F)[nH]3)N12` (single isomer, unassigned) [Example 71, (3R*,8aR)-7-(3-chloro-2-fluoro-6-(1H-tetrazol-1-yl)phenyl)-3-(5-(3-fluoro-2-(1H-1,2,3-triazol-1-yl)pyridin-4-yl)-1H-imidazol-2-yl)-2,3,8,8a-tetrahydroindolizin-5(1H)-one]: the IC50 turned out to be 0.0194 µM at human plasma kallikrein (setting [2]) and 13.8 nM on Factor XIa (setting [1]).

For `Nc1ccn(-c2cc(-c3cnc([C@H]4CC[C@@H]5CC(c6c(-n7cnnn7)ccc(Cl)c6F)=CC(=O)N54)[nH]3)ccn2)n1` (single isomer, unassigned) [Example 72, (3R*,8aR)-3-(5-(2-(3-amino-1H-pyrazol-1-yl)pyridin-4-yl)-1H-imidazol-2-yl)-7-(3-chloro-2-fluoro-6-(1H-tetrazol-1-yl)phenyl)-2,3,8,8a-tetrahydroindolizin-5(1H)-one], the half-maximal inhibitory concentration (IC50) on human plasma kallikrein (setting [2]) was determined as 0.0023 µM; at Factor XIa (setting [1]), 6.5 nM.

Regarding `O=C1C=C(c2c(-n3cnnn3)ccc(Cl)c2F)C[C@H]2CC[C@@H](c3ncc(-c4ccnc(N[C@H]5CCOC5)c4F)[nH]3)N12` (single isomer, unassigned) [Example 73, (3S,8aR*)-7-(3-chloro-2-fluoro-6-(1H-tetrazol-1-yl)phenyl)-3-(5-(3-fluoro-2-(((S)-tetrahydrofuran-3-yl)amino)pyridin-4-yl)-1H-imidazol-2-yl)-2,3,8,8a-tetrahydroindolizin-5(1H)-one], the 50% inhibitory concentration (IC50) on human plasma kallikrein (setting [2]) is 0.0027 µM; on Factor XIa (setting [1]), 0.6 nM.

Turning to `O=C1C=C(c2c(-n3cnnn3)ccc(Cl)c2F)C[C@@H]2CC[C@@H](c3ncc(-c4ccnc(N[C@H]5CCOC5)c4F)[nH]3)N12` (single isomer, unassigned) [Example 74, (3S,8aS*)-7-(3-chloro-2-fluoro-6-(1H-tetrazol-1-yl)phenyl)-3-(5-(3-fluoro-2-(((S)-tetrahydrofuran-3-yl)amino)pyridin-4-yl)-1H-imidazol-2-yl)-2,3,8,8a-tetrahydroindolizin-5(1H)-one], the 50% inhibitory concentration (IC50) is 0.0049 µM on human plasma kallikrein (setting [2]) and 2.6 nM on Factor XIa (setting [1]).

Turning to `Nc1nccc(-c2cnc([C@@H]3CC[C@@H]4CC(c5cc(Cl)ccc5-n5cnnn5)=CC(=O)N43)[nH]2)c1F` (single isomer, unassigned) [Example 90, (3S*,8aR)-3-(5-(2-amino-3-fluoropyridin-4-yl)-1H-imidazol-2-yl)-7-(5-chloro-2-(1H-tetrazol-1-yl)phenyl)-2,3,8,8a-tetrahydroindolizin-5(1H)-one], the IC50 on human plasma kallikrein (setting [2]) was found to be 0.0055 µM; at Factor XIa (setting [1]) it was 0.5 nM.
